Reference: US11180468B2, “Prodrugs of urolithins and uses thereof” (Amazentis SA, priority 2013, dated 2021)
Where a name gives a salt, the structure may show the parent alone. Read-outs that look alike come from different tables or passages of the source. Blank lines part the entries; values can stand above or below the molecule they belong to.

Experiments:
[1] = Solubility in phosphate buffer at pH 4 at room temperature, filtered solution analysed by HPLC against DMSO standard; type: physicochemical; details: phosphate buffer pH 4, room temperature; for solubility: aqueous buffer, thermodynamic from solid
Method: (§1) All HPLC analyses were carried out on a 5 μL sample on an Agilent 1100 series HPLC system including HPLC pump, auto injector, column oven and PDA detector with a Waters XBridgeC18, 50×2.1 mm, 5 μm column at a temperature of 40° C. and a flow rate of 0.4 mL/min using the following gradient: […]
A maximum amount of each compound was dissolved in 400 μL of phosphate buffer at pH 4 at room temperature in a filter vial (Agilent 0.45 μm PP Mini-UniPrep™). The filtered solutions were analysed by HPLC as described above. The peak area of the substance dissolved in buffer was compared to that of a standard prepared in DMSO.

[2] = Stability (degradation) in aqueous phosphate buffer solution at room temperature, HPLC percentage remaining; type: physicochemical
Method: as §1
The stability of the compounds in aqueous solution at room temperature was measured by dissolving the compounds in phosphate buffer of a pH chosen from 2, 3, 4, and/or 5. The compounds with low water solubility were first dissolved in DMSO and then diluted with phosphate buffer to contain 10% of DMSO. The samples were analysed by HPLC, as described above, at time 0 and several times thereafter. The peak area of the samples at these times were compared to the areas at t=0 to calculate the percentage remaining of the starting compound.
The solutions were prepared for each of the compounds as set out in Table 8. Plots of the percentage remaining of starting substance over time for each of the compounds measured are given in FIGS. 1-6, and t50 values (time taken for 50% of the starting compound to degrade) are given in Table 8.

[3] = Oral bioavailability: plasma concentration of Urolithin after oral administration to rats; type: in vivo, Sprague-Dawley rats; details: rat
Method: The oral bioavailability of compounds of the invention can be assessed by orally administering a dose of compound in solution to Sprague-Dawley rats. Blood samples are collected from each rat before administration, and at intervals up to 24 hours thereafter. The blood samples are analysed for the plasma concentration of Urolithin. […] The Urolithin A was still present in the blood at a concentration of 2.6 mg/ml at 12 hours following administration in the case of the saline solution, and 1.30 mg/ml in the case of the DMSO/water solution. The Cmax and AUC of Urolithin A were higher when the compound of Example 4 was orally administered than when Urolithin A was orally administered.

[4] = Urolithin A compounds, molar basis, read-out: Solubility (mM/L)
[5] = Urolithin A compounds, read-out: Solubility
[6] = Urolithin B compounds, molar basis, read-out: Solubility (mM/L)
[7] = Urolithin B compounds, read-out: Solubility

SMILES: CC(C)CC(N)C(=O)Oc1ccc2c(c1)oc(=O)c1cc(OC(=O)[C@H](N)CC(C)C)ccc12 (stereo in doubt) [Example 4, 8-{[(2R)-2-Amino-4-methylpentanoyl]oxy}-6-oxo-6H-benzo[c]chromen-3-yl (2S)-2-amino-4-methylpentanoate dihydrochloride]
solubility [1, 4]: 4.73 mM
solubility [1, 5]: 2150 µg/mL
Solubility compared in words [1]: particularly soluble compared to the parent compound
Degradation rate compared in words ([2]; at pH 4): degrades more slowly than Example 3
t50 (mins), time taken for 50% of the starting compound to degrade ([2]; pH 4, 0.4 mg in 1 mL, FIG. 4): 405 min
AUC of Urolithin A compared with oral administration of Urolithin A [3]: higher
Cmax of Urolithin A compared with oral administration of Urolithin A [3]: higher
Delivery of Urolithin A into the blood following oral administration, compared with oral Urolithin A [3]: at least as effectively

SMILES: CC(N)C(=O)Oc1ccc2c(c1)oc(=O)c1cc(OC(=O)[C@@H](C)N)ccc12 (stereo in doubt) [Example 2, 8-{[(2R)-2-Aminopropanoyl]oxy}-6-oxo-6H-benzo[c]chromen-3-yl (2S)-2-aminopropanoate dihydrochloride]
solubility [1, 4]: 4.86 mM
solubility [1, 5]: 1800 µg/mL
t50 (mins), time taken for 50% of the starting compound to degrade ([2]; pH 4, 0.33 mg in 0.66 mL (second time), FIG. 2): 31 min
t50 (mins), time taken for 50% of the starting compound to degrade ([2]; pH 4, 0.72 mg in 0.4 mL, FIG. 2): 56 min
t50 (mins), time taken for 50% of the starting compound to degrade ([2]; pH 4, 0.94 mg in 1.8 mL (first time), FIG. 2): 29 min

SMILES: CC(C)C[C@H](N)C(=O)Oc1ccc2c(c1)oc(=O)c1ccccc12 [Example 5, 6-Oxo-6H-benzo[c]chromen-3-yl (2S)-2-amino-4-methylpentanoate hydrochloride]
Degradation rate compared in words ([2]; at pH 2 and pH 5): degrades more slowly than Example 1
t50 (mins), time taken for 50% of the starting compound to degrade ([2]; pH 2, 0.2 mg in 1 mL, FIG. 6): 240 min
Increase in the rate of degradation when the pH of the solution is increased from 2 to 5 ([2]; pH 2 to pH 5): two-fold
t50 (mins), time taken for 50% of the starting compound to degrade ([2]; pH 5, 0.3 mg in 1 mL, FIG. 6): 125 min

SMILES: NCC(=O)Oc1ccc2c(c1)oc(=O)c1ccccc12 [Example 3, 6-Oxo-6H-benzo[c]chromen-3-yl 2-aminoacetate hydrochloride]
solubility [1, 6]: 4.94 mM
solubility [1, 7]: 1330 µg/mL
Degradation rate compared in words ([2]; at pH 4): degrades more slowly than Example 1
t50 (mins), time taken for 50% of the starting compound to degrade ([2]; pH 4, 0.31 mg in 1 mL, FIG. 3): 156 min

More lines, main results first:

solubility [1, 6]: 0.00127 mM
solubility [1, 7]: 0.27 µg/mL
SMILES: O=c1oc2cc(O)ccc2c2ccccc12 [Urolithin B, reference compound]

solubility [1, 4]: 5.64 mM
solubility [1, 5]: 1930 µg/mL
Degradation rate compared in words ([2]; at pH 4): degrades more slowly than Example 2
t50 (mins), time taken for 50% of the starting compound to degrade ([2]; pH 2, 0.16 mg in 1 mL, FIG. 5): 81 min
t50 (mins), time taken for 50% of the starting compound to degrade ([2]; pH 4, 0.77 mg in 1 mL, FIG. 1): 74 min
t50 (mins), time taken for 50% of the starting compound to degrade ([2]; pH 5, 0.16 mg in 1 mL, FIG. 5): 27 min
SMILES: NCC(=O)Oc1ccc2c(c1)oc(=O)c1cc(OC(=O)CN)ccc12 [Example 1, 8-[(2-Aminoacetyl)oxy]-6-oxo-6H-benzo[c]chromen-3-yl 2-aminoacetate dihydrochloride]
Solubility compared in words [1]: more soluble than the Glycine urolithin B compound (Example 3)

solubility [1, 4]: 0.00057 mM
solubility [1, 5]: 0.13 µg/mL
SMILES: O=c1oc2cc(O)ccc2c2ccc(O)cc12 [Urolithin A, reference compound]
